Results taken from US20050245399A1, “Pyrazole derivatives as herbicidal compositions containing them” (ISHIHARA SANGYO KAISHA, LTD., priority 2004, published 2005).

What was measured:
Type in all cases: in vivo
[1] = system: barnyardgrass (Echinochiloa oryzicola: ECHOR); assay: Test Example 3 water application herbicidal activity (paddy), ECHOR; conditions: 63 g a.i./ha, water application under submerged condition at 0.5 leaf stage, visually observed 14th day after application; 0 = untreated control, 100 = complete kill
Outline: (§1)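 Flooded paddy-soil pots in greenhouse; ECHOR and SCPJO sown, SAGPY tubers planted a day later, compound applied into 3–4 cm water at weeds' 0.5-leaf stage. Rice transplanted at 2-leaf stage, treated day 4 after transplanting. Visual growth control 0–100% at 14 days (weeds) and 21 days (rice) after application.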

[2] = system: prickly sida (Sida spinosa L.): SEDSP; assay: Test Example 1 pre-emergence herbicidal activity, SIDSP; conditions: Rate 63 g a.i./ha, visually observed 20th to 23rd day after application
Outline: (§2)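 Seeds sown in upland field soil in pots; one day later compound, formulated as wettable powder or emulsifiable concentrate and diluted with water at 500 L/ha, sprayed pre-emergence at a predetermined active-ingredient rate. Growth control scored visually 20–23 days after application, 0 (untreated-like) to 100 (complete kill) %.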

[3] = system: corn (Zea mays L.): ZEAMX; assay: Test Example 1 pre-emergence herbicidal activity, ZEAMX; conditions: Rate 63 g a.i./ha, visually observed 20th to 23rd day after application
Outline: as §2

[4] = system: soybean (Glycine max Merr.): GLXMA; assay: Test Example 1 pre-emergence herbicidal activity, GLXMA; conditions: Rate 63 g a.i./ha, visually observed 20th to 23rd day after application
Outline: as §2

[5] = system: corn (Zea mays L.), ZEAMX; assay: Test Example 2 post-emergence (foliage treatment) herbicidal activity, ZEAMX; conditions: 63 g a.i./ha
Outline: (§3)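 Foliar spray of formulated compound (500 L/ha dilution water, 0.1% v/v spreader) onto young potted plants at defined leaf stages. Scored 0-100% by visual inspection 20-23 d post-spray.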

[6] = system: rice (Oryza sativa L.), ORYSA; assay: Test Example 2 post-emergence (foliage treatment) herbicidal activity, ORYSA; conditions: 63 g a.i./ha
Outline: (§4)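 Pot-grown plants in upland soil were sprayed over the foliage at ECHCG 1.1-2.1, DIGSA 1.0-2.0, AMARE 0.1-1.5 and ORYSA 1.0-2 leaf stage. Wettable powder or emulsifiable concentrate was diluted in water at 500 L/ha plus 0.1% (v/v) spreader. Growth control was scored visually 20-23 days later, 0 (untreated) to 100% (complete kill).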

[7] = system: prickly sida (Sida spinosa L.), SIDSP; assay: Test Example 2 post-emergence (foliage treatment) herbicidal activity, SIDSP; conditions: 63 g a.i./ha
Outline: as §3

[8] = system: redroot pigweed (Amaranthus retroflexus L.): AMARE; assay: Test Example 1 pre-emergence herbicidal activity, AMARE; conditions: Rate 63 g a.i./ha, visually observed 20th to 23rd day after application
Outline: as §2

[9] = system: wheat (Triticum aestivum L.), TRZAX; assay: Test Example 2 post-emergence (foliage treatment) herbicidal activity, TRZAX; conditions: 63 g a.i./ha
Outline: as §3

[10] = system: green foxtail (Setaria viridis L.), SETVI; assay: Test Example 2 post-emergence (foliage treatment) herbicidal activity, SETVI; conditions: 63 g a.i./ha
Outline: as §3

[11] = system: rice (Oryza sativa L.): ORYSA; assay: Test Example 1 pre-emergence herbicidal activity, ORYSA; conditions: Rate 63 g a.i./ha, visually observed 20th to 23rd day after application
Outline: as §2

[12] = system: barnyardgrass (Echinochloa crus-galli L.): ECHCG; assay: Test Example 1 pre-emergence herbicidal activity, ECHCG; conditions: Rate 63 g a.i./ha, visually observed 20th to 23rd day after application
Outline: as §2

[13] = system: wheat (Triticum aestivum L.): TRZAX; assay: Test Example 1 pre-emergence herbicidal activity, TRZAX; conditions: Rate 63 g a.i./ha, visually observed 20th to 23rd day after application
Outline: as §2

[14] = system: velvetleaf (Abutilon theophrasti): ABUTH; assay: Test Example 1 pre-emergence herbicidal activity, ABUTH; conditions: Rate 63 g a.i./ha, visually observed 20th to 23rd day after application
Outline: as §2

[15] = system: barnyardgrass (Echinochloa crus-galli L.), ECHCG; assay: Test Example 2 post-emergence (foliage treatment) herbicidal activity, ECHCG; conditions: 63 g a.i./ha
Outline: as §4

[16] = system: green foxtail (Setaria viridis L.): SETVI; assay: Test Example 1 pre-emergence herbicidal activity, SETVI; conditions: Rate 63 g a.i./ha, visually observed 20th to 23rd day after application
Outline: as §2

[17] = system: crabgrass (Digitaria sanguinalis L.), DIGSA; assay: Test Example 2 post-emergence (foliage treatment) herbicidal activity, DIGSA; conditions: 63 g a.i./ha
Outline: as §4

[18] = system: redroot pigweed (Amaranthus retroflexus L.), AMARE; assay: Test Example 2 post-emergence (foliage treatment) herbicidal activity, AMARE; conditions: 63 g a.i./ha
Outline: as §4

[19] = system: velvetleaf (Abutilon theophrasti), ABUTH; assay: Test Example 2 post-emergence (foliage treatment) herbicidal activity, ABUTH; conditions: 63 g a.i./ha
Outline: as §3

[20] = system: crabgrass (Digitaria sanguinalis L.): DIGSA; assay: Test Example 1 pre-emergence herbicidal activity, DIGSA; conditions: Rate 63 g a.i./ha, visually observed 20th to 23rd day after application
Outline: as §2

[21] = system: soybean (Glycine max Merr.), GLXMA; assay: Test Example 2 post-emergence (foliage treatment) herbicidal activity, GLXMA; conditions: 63 g a.i./ha
Outline: as §3

[22] = system: rice (Oryza sativa L.: ORYSA); assay: Test Example 3 water application herbicidal activity (paddy), transplanted rice ORYSA; conditions: 63 g a.i./ha, water application 4th day after transplantation of 2 leaf stage rice, visually observed 21st day after application; 0 = untreated control, 100 = complete kill
Outline: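 Submerged application in flooded paddy soil (3–4 cm water); weeds treated at 0.5-leaf stage, transplanted rice 4 d after transplanting. Scored visually as % growth control: weeds at 14 d, rice at 21 d.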

[23] = system: japanese ribbon wapato (Sagittaria pygmaea: SA GPY); assay: Test Example 3 water application herbicidal activity (paddy), SAGPY; conditions: 63 g a.i./ha, water application under submerged condition, tubers planted, visually observed 14th day after application; 0 = untreated control, 100 = complete kill
Outline: as §1

[24] = system: japanese bulrush (Scirpus juncoides: SCPJO); assay: Test Example 3 water application herbicidal activity (paddy), SCPJO; conditions: 63 g a.i./ha, water application under submerged condition at 0.5 leaf stage, visually observed 14th day after application; 0 = untreated control, 100 = complete kill
Outline: as §1

COc1c(Cl)cc(F)c(-c2nn(C)c(OC(F)F)c2Cl)c1NC(=O)c1ccccc1F [Compound 1-22]
growth controlling degrees (%) ECHOR [1]: 100% | Pre-emergence Herbicidal Activity SIDSP (growth controlling degree) [2]: 100% | Pre-emergence Herbicidal Activity ZEAMX (growth controlling degree) [3]: 20% | Pre-emergence Herbicidal Activity GLXMA (growth controlling degree) [4]: 50% | growth controlling degree, ZEAMX [5]: 90% | growth controlling degree, ORYSA [6]: 95% | growth controlling degree, SIDSP [7]: 100% | Pre-emergence Herbicidal Activity AMARE (growth controlling degree) [8]: 100% | growth controlling degree, TRZAX [9]: 40% | growth controlling degree, SETVI [10]: 100% | Pre-emergence Herbicidal Activity ORYSA (growth controlling degree) [11]: 50% | Pre-emergence Herbicidal Activity ECHCG (growth controlling degree) [12]: 80% | Pre-emergence Herbicidal Activity TRZAX (growth controlling degree) [13]: 10% | Pre-emergence Herbicidal Activity ABUTH (growth controlling degree) [14]: 100% | growth controlling degree, ECHCO [15]: 100% | Pre-emergence Herbicidal Activity SETVI (growth controlling degree) [16]: 100% | growth controlling degree, DIGSP [17]: 100% | growth controlling degree, AMARE [18]: 100% | growth controlling degree, ABUTH [19]: 100% | Pre-emergence Herbicidal Activity DIGSP (growth controlling degree) [20]: 100% | growth controlling degree, GLXMA [21]: 98% | growth controlling degrees (%) ORYSA [22]: 40% | growth controlling degrees (%) SAGPY [23]: 98% | growth controlling degrees (%) SCPJO [24]: 95%

COc1c(Cl)cc(F)c(-c2nn(C)c(OC(F)F)c2Cl)c1NC(=O)c1ccccc1Cl [Compound 1-23]
growth controlling degrees (%) ECHOR [1]: 100% | Pre-emergence Herbicidal Activity SIDSP (growth controlling degree) [2]: 100% | Pre-emergence Herbicidal Activity ZEAMX (growth controlling degree) [3]: 0% | Pre-emergence Herbicidal Activity GLXMA (growth controlling degree) [4]: 30% | growth controlling degree, ZEAMX [5]: 80% | growth controlling degree, ORYSA [6]: 90% | growth controlling degree, SIDSP [7]: 100% | Pre-emergence Herbicidal Activity AMARE (growth controlling degree) [8]: 100% | growth controlling degree, TRZAX [9]: 40% | growth controlling degree, SETVI [10]: 100% | Pre-emergence Herbicidal Activity ORYSA (growth controlling degree) [11]: 40% | Pre-emergence Herbicidal Activity ECHCG (growth controlling degree) [12]: 80% | Pre-emergence Herbicidal Activity TRZAX (growth controlling degree) [13]: 40% | Pre-emergence Herbicidal Activity ABUTH (growth controlling degree) [14]: 90% | growth controlling degree, ECHCO [15]: 98% | Pre-emergence Herbicidal Activity SETVI (growth controlling degree) [16]: 95% | growth controlling degree, DIGSP [17]: 90% | growth controlling degree, AMARE [18]: 100% | growth controlling degree, ABUTH [19]: 100% | Pre-emergence Herbicidal Activity DIGSP (growth controlling degree) [20]: 100% | growth controlling degree, GLXMA [21]: 98% | growth controlling degrees (%) ORYSA [22]: 40% | growth controlling degrees (%) SAGPY [23]: 98% | growth controlling degrees (%) SCPJO [24]: 80%

COc1c(Cl)cc(F)c(-c2nn(C)c(OC(F)F)c2Cl)c1NC(=O)c1ccccc1C [Compound 1-24]
growth controlling degrees (%) ECHOR [1]: 100% | Pre-emergence Herbicidal Activity SIDSP (growth controlling degree) [2]: 100% | Pre-emergence Herbicidal Activity ZEAMX (growth controlling degree) [3]: 10% | Pre-emergence Herbicidal Activity GLXMA (growth controlling degree) [4]: 10% | growth controlling degree, ZEAMX [5]: 90% | growth controlling degree, ORYSA [6]: 98% | growth controlling degree, SIDSP [7]: 100% | Pre-emergence Herbicidal Activity AMARE (growth controlling degree) [8]: 100% | growth controlling degree, TRZAX [9]: 50% | growth controlling degree, SETVI [10]: 100% | Pre-emergence Herbicidal Activity ORYSA (growth controlling degree) [11]: 60% | Pre-emergence Herbicidal Activity ECHCG (growth controlling degree) [12]: 95% | Pre-emergence Herbicidal Activity TRZAX (growth controlling degree) [13]: 20% | Pre-emergence Herbicidal Activity ABUTH (growth controlling degree) [14]: 100% | growth controlling degree, ECHCO [15]: 100% | Pre-emergence Herbicidal Activity SETVI (growth controlling degree) [16]: 100% | growth controlling degree, DIGSP [17]: 98% | growth controlling degree, AMARE [18]: 100% | growth controlling degree, ABUTH [19]: 100% | Pre-emergence Herbicidal Activity DIGSP (growth controlling degree) [20]: 100% | growth controlling degree, GLXMA [21]: 100% | growth controlling degrees (%) ORYSA [22]: 60% | growth controlling degrees (%) SAGPY [23]: 90% | growth controlling degrees (%) SCPJO [24]: 80%
